Assay results taken from PubChem BioAssay (NCI).
Where “and” joins values, the source holds several entries; their conditions need not be identical. Identical values can stand only once.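 Step 1: Grow cells in 96-well plates. Step 2: Expose to compound for 48 hours at 5 concentrations. Step 3: Interpolate endpoints linearly; if unreached, use highest concentration. Abbreviation: GI50, concentration required for 50% inhibition of growth. TGI denotes the concentration required for complete inhibition of growth.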

Assays:
Assay in all cases: growth of human tumour cells (NCI), 48 h
IGROV1 ovarian = tested on: IGROV1 ovarian
MDA-MB-231 breast = tested on: MDA-MB-231 breast
NCI-H23 lung = tested on: NCI-H23 lung
OVCAR-5 ovarian = tested on: OVCAR-5 ovarian
OVCAR-8 ovarian = tested on: OVCAR-8 ovarian
RXF 393 renal = tested on: RXF 393 renal
SK-MEL-2 melanoma = tested on: SK-MEL-2 melanoma
SK-MEL-5 melanoma = tested on: SK-MEL-5 melanoma
T-47D breast = tested on: T-47D breast
TK-10 renal = tested on: TK-10 renal

Row | Compound | GI50 (IGROV1 ovarian) | TGI (IGROV1 ovarian) [µM] | GI50 (MDA-MB-231 breast) | TGI (MDA-MB-231 breast) | GI50 (NCI-H23 lung) | TGI (NCI-H23 lung) [µM] | GI50 (OVCAR-5 ovarian) | TGI (OVCAR-5 ovarian) [µM] | GI50 (OVCAR-8 ovarian) | TGI (OVCAR-8 ovarian) [µM] | GI50 (RXF 393 renal) | TGI (RXF 393 renal) | GI50 (SK-MEL-2 melanoma) | TGI (SK-MEL-2 melanoma) | GI50 (SK-MEL-5 melanoma) | TGI (SK-MEL-5 melanoma) | GI50 (T-47D breast) | TGI (T-47D breast) | GI50 (TK-10 renal) | TGI (TK-10 renal)
1 | O=C(Nc1cnc(C(F)(F)F)cn1)c1cc(Cl)ccc1O | 0.374 µM | > 100 | 0.27 µM | 0.946 µM | 0.257 µM | 1.22 | 0.343 µM | > 100 | 0.365 µM | 61.8 | 0.318 µM | 0.922 µM | 0.271 µM | 0.84 µM | 0.131 µM | 0.336 µM | 0.238 µM | 0.851 µM | 0.465 µM | > 100 µM
2 | C[C@@H]1COCCN1c1cc(-c2ccnn2C)c2ccnc(-c3ccn[nH]3)c2n1 | 0.0715 µM and 0.195 µM |  | 0.223 µM and 0.386 µM | 10.7 µM and > 69.9 µM | 0.0303 µM and 0.075 µM |  | 0.103 µM and 0.193 µM | > 100 | 0.17 µM and 0.415 µM |  | 0.0236 µM and 0.0851 µM | 0.0776 µM and 0.497 µM | 0.064 µM and 0.161 µM | 0.734 µM and 1.85 µM | 0.222 µM and 0.286 µM | 0.766 µM and 2.52 µM | 0.159 µM and 0.384 µM | 0.79 µM and 2.81 µM | 0.0715 µM and 0.313 µM | 1.57 µM and 7 µM
3 | Nc1ncccc1-c1nc2ccc(-c3ccccc3)nc2n1-c1ccc(C2(N)CCC2)cc1 | 0.0342 µM | 0.863 | 1.46 µM | 3.39 µM | 5.19 µM | 21.5 | 1.53 µM | 8.23 | 2.06 µM | 6.24 | 0.214 µM | 1.63 µM | 1.65 µM | 3.54 µM | 1.36 µM | 2.67 µM | < 0.0118 µM | 0.158 µM | 0.719 µM | 8.01 µM
4 | CCOC(=O)C1=C(C)N2C(=NC3=C(CCC/C3=C\c3ccc(Cl)cc3)C2c2ccc(Cl)cc2)S1 (configuration not stated) | 3.11 µM | 10.1 | 3.06 µM | 16.6 µM | 2.03 µM | 5.26 | 20.1 µM | > 100 | 3.24 µM | 31 | 1.88 µM | 3.51 µM | 19 µM | 62.1 µM | 2.93 µM | 11.4 µM | 3.61 µM | 28.3 µM | 5.23 µM | 65.9 µM
5 | C=CCCCOC1[C@H](OCc2ccccc2)C(OCc2ccccc2)C(OC)O[C@@H]1CNC(=O)c1cccc(I)c1 (some centres not stated) | 17.7 µM | > 100 | 8.34 µM | > 100 µM | 33.6 µM | > 100 | > 100 µM | > 100 | 26 µM | > 100 | 3.91 µM | > 100 µM | 48.1 µM | > 100 µM | 2.2 µM | 16.2 µM | 4.74 µM | > 100 µM | 5.3 µM | > 100 µM
6 | Cc1c2ccncc2c(C)c2c1c1cc(CO)ccc1n2C | 0.214 µM | 1.76 | 0.456 µM | 2.96 µM | 0.429 µM | 2.66 | 0.267 µM | 0.984 | 0.449 µM | 10.1 | 0.41 µM | 1.7 µM | 0.819 µM | 2.54 µM | 1.08 µM | 2.7 µM | 0.268 µM | 3.52 µM | 0.378 µM | 1.91 µM
7 | C=C1CC[C@@H]2[C@](C)(COC(C)=O)[C@H](OC(C)=O)CC[C@@]2(C)[C@@H]1CC(Nc1ccc(S(=O)(=O)Nc2nccs2)cc1)C1=CCOC1=O (some centres not stated) | 4.54 µM | 17.1 | 3.31 µM | 8.25 µM | 10 µM | 24.8 | 4.82 µM | 17.6 | 3.14 µM | 10.8 | 2.36 µM | 4.74 µM | 10.6 µM | 24.4 µM | 4.79 µM | 17.1 µM | 3.39 µM | 20.8 µM | 9.45 µM | 21.2 µM
8 | NS(=O)(=O)c1cccc(-c2ccc3c(NC(=O)C4CC4)n[nH]c3c2)c1 | > 25 µM | > 25 | 25 µM | > 25 µM | > 25 µM | > 25 | > 25 µM | > 25 | 24.3 µM | > 25 | > 15 µM | > 25 µM | 8.78 µM | 24.9 µM | > 14.7 µM | > 25 µM | 13.3 µM | > 25 µM | > 25 µM | > 25 µM
9 | O=C(Nc1ccccc1Cl)c1cccc(NC2=C(Cl)C(=O)N(Cc3ccccc3)C2=O)c1 | 0.549 µM | 2.29 | 17.1 µM | 69.7 µM | 50.5 µM | > 100 | > 100 µM | > 100 | 20.8 µM | > 100 | 52.5 µM | > 100 µM |  | 6.38 µM | 14.1 µM | 51.4 µM | > 100 µM | > 100 µM |  | 
10 | COc1ccc2c(c1)C(=O)c1c-2n(CCCN)c(=O)c2cc([N+](=O)[O-])ccc12 | < 0.01 µM | 0.192 | 0.1 µM | 0.227 µM |  |  | < 0.01 µM | < 0.01 |  |  | < 0.01 µM | < 0.01 µM | 3.06 µM | 8.53 µM |  |  | < 0.01 µM | 1.86 µM | 3.33 µM | 10 µM
11 | COc1ccc2c(c1)/C(=C\c1c[nH]c3ccc(OC)cc13)C(=O)N2 | 3.66 µM | 17.1 | 1.97 µM | 6.32 µM | 4.46 µM | 21 | 3.43 µM | 13.2 |  |  | 2.91 µM | 9.6 µM | 2.3 µM | 6.27 µM | 3.02 µM | 12.5 µM | 2.99 µM | 13.4 µM | 3.68 µM | 13.3 µM
12 | O=c1c(O)cccn1CCCN(CCCn1cccc(O)c1=O)CCn1cccc(O)c1=O | 23.6 µM | > 100 | 8.28 µM | > 100 µM | 21.1 µM | > 100 | > 100 µM | > 100 | 2.26 µM | > 100 | 1.86 µM | 9.83 µM |  |  | 2.67 µM | > 100 µM | 5.64 µM | > 100 µM | 7.92 µM | > 100 µM
13 | COc1cc(C2CC(=O)Nc3c2cc(Br)c2ccccc32)cc(Br)c1OC (configuration not stated) | 2.61 µM | > 63.9 | 2.66 µM | 7.42 µM | 4.37 µM | > 100 | 3.02 µM | > 100 | 1.74 µM | > 100 | 1.73 µM | 3.93 µM | 3.67 µM | 27.2 µM | 2.82 µM | > 100 µM | 1.61 µM | 5.26 µM |  | 
